In BindingDB's records for doi:10.7270/Q2PR7TCX (The Scripps Research Institute Molecular Screening Center, 2007):
Structures can show the parent of a compound that is named as a salt.

target: Steroidogenic factor 1 (Homo sapiens, UniProt Q13285); assay: SF-1 inhibitors in Gal4 reporter counter-screen, dose response, counter-screen for RORA inhibitor project, cell-based, CHO-K1, Gal4-SF-1 LBD, luciferase luminescence (AID 611); conditions: not given
Sequence (Q13285 whole entry, the tested form may be a part): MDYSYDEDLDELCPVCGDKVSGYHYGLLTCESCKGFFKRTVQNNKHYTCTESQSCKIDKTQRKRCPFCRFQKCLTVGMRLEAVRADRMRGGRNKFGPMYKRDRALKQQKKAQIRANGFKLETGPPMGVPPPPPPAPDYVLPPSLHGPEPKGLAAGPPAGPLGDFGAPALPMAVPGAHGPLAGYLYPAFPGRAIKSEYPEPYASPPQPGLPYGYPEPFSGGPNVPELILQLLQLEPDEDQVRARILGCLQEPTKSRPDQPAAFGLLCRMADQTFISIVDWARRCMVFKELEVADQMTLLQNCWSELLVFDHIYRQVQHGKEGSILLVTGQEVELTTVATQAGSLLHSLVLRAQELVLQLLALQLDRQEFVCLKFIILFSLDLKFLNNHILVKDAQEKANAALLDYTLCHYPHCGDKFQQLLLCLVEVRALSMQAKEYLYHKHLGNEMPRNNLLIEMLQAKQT

Structure (SMILES) | IC50 [µM]
CC1CCN(c2nc3ccc(C(=O)O)cc3s2)CC1 [2-(4-methyl-1-piperidinyl)-1,3-benzothiazole-6-carboxylic acid] | 0.329
c1c2c(cc3sc(N4CCOCC4)nc13)OCCO2 [2-(4-morpholinyl)-6,7-dihydro-[1,4]dioxino[2,3-f][1,3]benzothiazole] | > 3.67
CCOc1ccc(-c2nc(CSCC(=O)NCCN3CCOCC3)c(C)o2)cc1 [2-({[2-(4-ethoxyphenyl)-5-methyl-1,3-oxazol-4-yl]methyl}thio)-N-(2-morpholin-4-ylethyl)acetamide] | 4
CCc1ccc(-c2nc(CSCC(=O)NCCCN3CCCC3=O)c(C)o2)cc1 [2-({[2-(4-ethylphenyl)-5-methyl-1,3-oxazol-4-yl]methyl}thio)-N-[3-(2-oxopyrrolidin-1-yl)propyl]acetamide] | 5.56
COc1cc(CC(NC(C)=O)C(=O)NC2CCN(c3nc(C)cc(C)c3C#N)CC2)cc(OC)c1 (stereo not drawn) [2-Acetylamino-N-(3'-cyano-4',6'-dimethyl-3,4,5,6-tetrahydro-2H-[1,2']bipyridinyl-4-yl)-3-(3,5-dimethoxy-phenyl)-propionamide] | > 99
Nc1nc(Cl)nc2c1ncn2[C@H]1C[C@H](O)[C@@H](CO)O1 [2-CHLORO-2'-DEOXYADENOSINE] | 0.666
CN1CCN(C(=O)COc2ccc(-c3nc4ccccc4s3)cc2)CC1 [2-[4-(1,3-benzothiazol-2-yl)phenoxy]-1-(4-methyl-1-piperazinyl)ethanone] | 5.28
O=C(CSc1nnnn1C1CC2CCC1C2)Nc1ccnc2ccccc12 (stereo not drawn) [2-[(1-bicyclo[2.2.1]hept-2-yl-1H-tetrazol-5-yl)thio]-N-4-quinolinylacetamide] | 0.444
N#Cc1c(NC(=O)CSc2nc(N)cc(=O)[nH]2)sc2c1CCCCCC2 [2-[(6-amino-4-oxo-1H-pyrimidin-2-yl)sulfanyl]-N-(3-cyano-4,5,6,7,8,9-hexahydrocycloocta[b]thiophen-2-yl)acetamide] | 14.6
CCOC(=O)c1c(N)sc(C(=O)Nc2ccc3c(c2)OCO3)c1C [2-amino-5-(1,3-benzodioxol-5-ylcarbamoyl)-4-methyl-thiophene-3-carboxylic acid ethyl ester] | 8.33
CCCc1ccc(-c2ccc(F)c(N)c2)nc1 [2-fluoranyl-5-(5-propylpyridin-2-yl)aniline] | 6
N#CC(C#N)=c1ccc2c(c1)NC1(CCCCC1)N=2 [2-spiro[3H-benzimidazole-2,1'-cyclohexane]-5-ylidenepropanedinitrile] | 9.07
CCOc1ccc(-c2noc(CCC(=O)O)n2)cc1 [3-(3-p-phenetyl-1,2,4-oxadiazol-5-yl)propionic acid] | 8.46
CN(C)C(=O)CCc1nc(-c2ccc(C(C)(C)C)cc2)no1 [3-[3-(4-tert-butylphenyl)-1,2,4-oxadiazol-5-yl]-N,N-dimethyl-propanamide] | 1.1
CCNC(=O)CCc1nc(-c2ccc(C(C)(C)C)cc2)no1 [3-[3-(4-tert-butylphenyl)-1,2,4-oxadiazol-5-yl]-N-ethyl-propanamide] | 0.0417
CNC(=O)CCc1nc(-c2ccc(C(C)(C)C)cc2)no1 [3-[3-(4-tert-butylphenyl)-1,2,4-oxadiazol-5-yl]-N-methyl-propanamide] | 0.075
CC(C)(C)c1ccc(-c2noc(CCC(N)=O)n2)cc1 [3-[3-(4-tert-butylphenyl)-1,2,4-oxadiazol-5-yl]propanamide] | 0.063
O=C(O)c1cccc(COc2ccc(CO)cc2Cl)c1 [3-[(2-chloro-4-methylol-phenoxy)methyl]benzoic acid] | 0.329
CCOc1ccc(OCc2cccc(C(=O)O)c2)cc1 [3-[(4-ethoxyphenoxy)methyl]benzoic acid] | 0.274
COc1ccc(OCc2cccc(C(=O)O)c2)cc1 [3-[(4-methoxyphenoxy)methyl]benzoic acid] | 0.37
O=C(c1ccc(Cl)cc1)N1CCCCC(Sc2nnc(-c3ccc4c(c3)OCO4)o2)C1=O (stereo not drawn) [3-[[5-(1,3-benzodioxol-5-yl)-1,3,4-oxadiazol-2-yl]sulfanyl]-1-(4-chlorobenzoyl)azepan-2-one] | 1.46
Cc1ccsc1C(=O)OCC(=O)c1cc(C)n(CC2CCCO2)c1C (stereo not drawn) [3-methyl-2-thiophenecarboxylic acid [2-[2,5-dimethyl-1-(2-oxolanylmethyl)-3-pyrrolyl]-2-oxoethyl] ester] | > 0.0453

Other lines, results leading:

IC50 [µM] | Structure (SMILES)
> 99 | Cc1oc2nc(SCC(=O)NCc3cccnc3)nc(N)c2c1C [2-(4-amino-5,6-dimethylfuro[2,3-d]pyrimidin-2-yl)sulfanyl-N-(pyridin-3-ylmethyl)acetamide]
> 3.67 | COc1ccc(-c2cc3nc4n(c(=O)c3s2)CCC4)cc1 [2-(4-methoxyphenyl)-6,7-dihydropyrrolo[1,2-a]thieno[3,2-d]pyrimidin-9(5H)-one]
7.8 | COc1ccc(-c2cc3nc4n(c(=O)c3s2)CCOC4)cc1 [2-(4-methoxyphenyl)-7,8-dihydro-5H-thieno[1,2]pyrimido[4,5-a][1,4]oxazin-10-one]
0.259 | CCOc1ccc(-c2nc(CSCC(=O)NCc3ccco3)c(C)o2)cc1 [2-({[2-(4-ethoxyphenyl)-5-methyl-1,3-oxazol-4-yl]methyl}thio)-N-(2-furylmethyl)acetamide]
> 99 | CN(C)c1nc(N)nc(CSc2nnnn2-c2cccc3ccccc23)n1 [2-N,2-N-dimethyl-6-[(1-naphthalen-1-yltetrazol-5-yl)sulfanylmethyl]-1,3,5-triazine-2,4-diamine]
9.37 | CCCCNc1cc(C)nc(NCc2ccccc2)n1 [2-N-benzyl-4-N-butyl-6-methylpyrimidine-2,4-diamine]
5.61 | Cc1cc(C(=O)CN2C(=O)c3ccccc3S2(=O)=O)c(C)n1CC1CCCO1 (stereo not drawn) [2-[2-[2,5-dimethyl-1-(2-oxolanylmethyl)-3-pyrrolyl]-2-oxoethyl]-1,1-dioxo-1,2-benzothiazol-3-one]
8.95 | CCOC(=O)CS(=O)(=O)c1nc(-c2ccc(F)cc2)cc(C(F)(F)F)n1 [2-[4-(4-fluorophenyl)-6-(trifluoromethyl)pyrimidin-2-yl]sulfonylacetic acid ethyl ester]
9.02 | Cc1cc(N2CCN(c3nc4ccccc4s3)CC2)n2ncnc2n1 [2-[4-(5-methyl-[1,2,4]triazolo[1,5-a]pyrimidin-7-yl)-1-piperazinyl]-1,3-benzothiazole]
9.74 | CCOC(=O)CS(=O)(=O)c1nc(-c2ccccc2)cc(C(F)(F)F)n1 [2-[4-phenyl-6-(trifluoromethyl)pyrimidin-2-yl]sulfonylacetic acid ethyl ester]
1.26 | c1ccc(-c2noc(-c3ccc4c(c3)OCO4)n2)nc1 [2-[5-(1,3-benzodioxol-5-yl)-1,2,4-oxadiazol-3-yl]pyridine]
0.867 | c1ccc(-c2noc(-c3ccc4ccccc4c3)n2)nc1 [2-[5-(2-naphthyl)-1,2,4-oxadiazol-3-yl]pyridine]
5.41 | Clc1cccc(-c2nc(-c3ccccn3)no2)c1 [2-[5-(3-Chloro-phenyl)-[1,2,4]oxadiazol-3-yl]-pyridine]
2.67 | O=S1(=O)C=C(Sc2nc3ccccc3s2)c2ccccc21 [2-[(1,1-dioxido-1-benzothien-3-yl)thio]-1,3-benzothiazole]
> 0.00503 | Cc1cc(C=c2sc3nc4ccccc4n3c2=O)c(C)n1-c1ccccn1 [2-[(2,5-dimethyl-1-pyridin-2-yl-pyrrol-3-yl)methylidene]-[1,3]thiazolo[3,2-a]benzimidazol-1-one]
3.76 | COc1cccc(NC(=O)CSc2nnc(-c3cc(C)n(-c4ccccc4)c3C)o2)c1 [2-[[5-(2,5-dimethyl-1-phenyl-3-pyrrolyl)-1,3,4-oxadiazol-2-yl]thio]-N-(3-methoxyphenyl)acetamide]
> 3.67 | CCc1nn2cc(-c3ccccc3)nc2s1 [2-ethyl-6-phenyl-imidazo[2,1-b][1,3,4]thiadiazole]
17.3 | c1coc(CNc2ncnc3ccccc23)c1 [2-furfuryl(quinazolin-4-yl)amine;hydrochloride]
4.27 | c1ccc(-c2cn3c4c(sc3n2)CCCC4)cc1 [2-phenyl-5,6,7,8-tetrahydroimidazo[2,1-b][1,3]benzothiazole]
> 33 | Cc1ccc(-c2nc3nc4ccccc4nc3n2Cc2ccco2)cc1 [3-(2-furanylmethyl)-2-(4-methylphenyl)imidazo[4,5-b]quinoxaline]
2.62 | Cc1ccc(-c2cc3c(nn2)-c2ccccc2C3=O)cc1 [3-(4-methylphenyl)-5H-indeno[1,2-c]pyridazin-5-one]
0.74 | COc1cc(OC)cc(-c2cc3nc(C)c(CCC(=O)O)c(C)n3n2)c1 [3-[2-(3,5-dimethoxyphenyl)-5,7-dimethyl-6-pyrazolo[1,5-a]pyrimidinyl]propanoic acid]
0.582 | O=C(O)c1cccc(COc2ccccc2Cl)c1 [3-[(2-chloranylphenoxy)methyl]benzoic acid]
2.16 | Cc1cc(C(=O)Nc2cccc(C(=O)O)c2)oc1C [3-[(4,5-dimethyl-2-furoyl)amino]benzoic acid]
> 99 | Cc1cc(C)cc(Nc2ccc(C(=O)O)cc2N)c1 [3-amino-4-(3,5-dimethylanilino)benzoic acid]

same assay, conditions: inactive by the depositor's call

IC50 [µM] | Structure (SMILES)
11 | O=C(CSc1nnc(Cn2nnc3ccccc32)o1)N(Cc1ccc(F)cc1)c1ccccc1 [2-(5-Benzotriazol-1-ylmethyl-[1,3,4]oxadiazol-2-ylsulfanyl)-N-(4-fluoro-benzyl)-N-phenyl-acetamide]
66.2 | Nc1ccc2oc(-c3cc(Br)ccc3Cl)nc2c1 [2-(5-bromanyl-2-chloranyl-phenyl)-1,3-benzoxazol-5-amine]
13 | Cc1cc(C)nc(SC2=CS(=O)(=O)c3ccccc32)n1 [2-[(1,1-dioxido-1-benzothien-3-yl)thio]-4,6-dimethylpyrimidine]
63.7 | Cc1cccc2cc3c(nc12)S/C(=N\CC1CCCO1)N(Cc1ccco1)C3 (stereo not drawn) [3-(2-furanylmethyl)-9-methyl-N-(2-oxolanylmethyl)-4H-[1,3]thiazino[6,5-b]quinolin-2-imine]
19.1 | O=C(O)CCSc1nc2ccccc2s1 [3-(Benzothiazol-2-ylsulfanyl)-propionic acid]
12.4 | Cc1ccccc1NC(=O)N1CCCC(c2nc(-c3ccc(C(C)C)cc3)no2)C1 (stereo not drawn) [3-[3-(4-Isopropyl-phenyl)-[1,2,4]oxadiazol-5-yl]-piperidine-1-carboxylic acid o-tolylamide]
